# Molecular target: ΔF508 CFTR (Homo sapiens, UniProt P13569, DEL508-508)
# Test: Stabilization of ΔF508 CFTR in CFBE cells (western blot, densitometry)
# Type: cell-based
# Details: 16 hours at 37° C.
# From the text: In addition, efficacy of a compound can be evaluated before (first in time), concomitantly or subsequently to the above-mentioned test modalities by monitoring, e.g., (i) modulation (e.g., an improvement) of the stability of a trafficking defective protein, (ii) modulation (e.g., an improvement) of proper, physiological trafficking of the trafficking defective protein, or (iii) modulation (e.g., a restoration) in one or more functions of a trafficking defective protein. For example, in some cases, proteins (e.g., protein mutants such as ΔF508 CFTR) are prematurely degraded. Thus, the efficacy of a given compound to modulate protein trafficking can be determined by monitoring the stability of a protein in the presence as compared to the absence of the compound. For example, cells expressing a trafficking defective protein (e.g., expressing endogenously or expressing an exogenous transgene encoding a trafficking defective protein such as ΔF508 CFTR) can be cultured in the presence or absence of a compound for at least 1 hour (e.g., at least 2 hours, at least 4 hours, at least 6 hours, at least 8 hours, at least 12 hours, at least 16 hours, at least 24 hours, at least 36 hours, or at least 48 hours). Cell lysates can be prepared from the different populations of cells, suspended in Laemmli buffer (with or without reducing agent) and subjected to sodium dodecyl sulfate-polyacrylamide gel electrophoresis (SDS-PAGE). Using antibodies that specifically recognize the trafficking defective protein (e.g., CFTR), the amount of the protein in the presence as compared to in the absence of a compound can be determined by western or dot-blotting techniques. […] Where a modified state (e.g., glycosylation or phosphorylation) of a protein is indicative of increased stability, a change in the modified state of a protein can also be used to determine if a compound stabilizes the trafficking defective protein. For example, the amount of glycosylated CFTR (e.g., ΔF508 CFTR) can be assessed in the presence as compared to the absence of a compound.
# The compounds can be tested for their ability to stabilize ΔF508 CTFR. CFBE cells, a cell line generated by transformation of cystic fibrosis tracheo-bronchial cells (ΔF508 CTFR homozygous) with SV40 (Bruscia et al. (2002) Gene Ther. 9(11):683-685), can be cultured with 10 μM of the selected compounds, or 10 μM VRT-325 for 16 hours at 37° C. (VRT-325 is described in, e.g., Van Goor et al. (2006) Am. J. Physiol. Lung Cell Mol. Physiol. 290:L1117-L1130). A population of cells can also be cultured with the dimethyl sulfoxide (DMSO) solvent as a control.
# Following incubation, cells were lysed, solubilized in Laemmli buffer, and subjected to SDS-PAGE. CFTR protein were visualized by western blotting using an antibody specific for CFTR. Culturing CFBE cells with compound 25 (see Table I for structure) increased the amount of cellular ΔF508 CFTR protein.
# The effect of different concentrations of compound 25 on ΔF508 CFTR was tested in a dose response experiment. […] The relative amounts of glysosylated and unglycosylated ΔF508 CFTR protein were visualized by western blotting (FIG. 10A), and the band intensities wer quantitated by scanning and densitometry (FIG. 10B). […] The relative amounts of glysosylated and unglycosylated ΔF508 CFTR protein were visualized by western blotting (FIG. 11A), and the band intensities wer quantitated by scanning and densitometry (FIG. 11B).
# ΔF508 CFTR, sequence (P13569 with tags, fused parts or gaps DEL508-508): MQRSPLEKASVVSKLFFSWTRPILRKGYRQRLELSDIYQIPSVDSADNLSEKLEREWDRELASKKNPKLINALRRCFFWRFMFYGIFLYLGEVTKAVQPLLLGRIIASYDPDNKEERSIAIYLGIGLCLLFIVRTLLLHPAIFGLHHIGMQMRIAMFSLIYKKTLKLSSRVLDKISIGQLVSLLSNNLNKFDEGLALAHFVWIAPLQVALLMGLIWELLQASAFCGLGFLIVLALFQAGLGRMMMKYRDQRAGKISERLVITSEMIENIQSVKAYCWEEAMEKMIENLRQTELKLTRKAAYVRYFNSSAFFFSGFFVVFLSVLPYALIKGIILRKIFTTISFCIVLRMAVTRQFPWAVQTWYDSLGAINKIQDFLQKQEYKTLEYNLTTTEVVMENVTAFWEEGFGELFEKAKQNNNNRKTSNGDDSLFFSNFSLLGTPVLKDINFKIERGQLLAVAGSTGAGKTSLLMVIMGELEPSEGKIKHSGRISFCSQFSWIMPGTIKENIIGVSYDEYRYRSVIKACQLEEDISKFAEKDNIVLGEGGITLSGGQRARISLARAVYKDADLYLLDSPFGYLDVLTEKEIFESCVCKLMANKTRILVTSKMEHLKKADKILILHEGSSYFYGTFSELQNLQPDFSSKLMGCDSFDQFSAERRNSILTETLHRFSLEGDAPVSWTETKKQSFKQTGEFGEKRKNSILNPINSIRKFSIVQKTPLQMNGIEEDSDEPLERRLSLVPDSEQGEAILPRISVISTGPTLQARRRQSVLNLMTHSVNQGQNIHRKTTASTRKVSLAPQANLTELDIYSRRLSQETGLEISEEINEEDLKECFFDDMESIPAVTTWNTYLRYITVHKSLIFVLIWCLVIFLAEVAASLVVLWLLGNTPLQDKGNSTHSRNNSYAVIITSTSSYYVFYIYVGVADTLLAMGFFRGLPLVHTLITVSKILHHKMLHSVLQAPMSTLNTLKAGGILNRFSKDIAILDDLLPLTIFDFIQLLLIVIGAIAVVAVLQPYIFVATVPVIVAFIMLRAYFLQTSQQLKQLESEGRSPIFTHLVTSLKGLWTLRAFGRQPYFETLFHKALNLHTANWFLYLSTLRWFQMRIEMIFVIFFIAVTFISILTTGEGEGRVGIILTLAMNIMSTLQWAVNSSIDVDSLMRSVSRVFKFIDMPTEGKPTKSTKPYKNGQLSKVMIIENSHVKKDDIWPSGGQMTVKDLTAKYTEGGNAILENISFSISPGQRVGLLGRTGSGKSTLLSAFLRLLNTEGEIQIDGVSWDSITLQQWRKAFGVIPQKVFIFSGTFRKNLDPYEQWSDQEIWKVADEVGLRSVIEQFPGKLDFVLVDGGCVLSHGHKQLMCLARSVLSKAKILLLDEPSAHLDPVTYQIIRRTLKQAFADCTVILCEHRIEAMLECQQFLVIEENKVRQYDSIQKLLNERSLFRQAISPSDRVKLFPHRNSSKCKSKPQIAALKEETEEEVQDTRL
structure (smiles),measurement,setting,value
CC(C)(C)n1nc(-c2ccc(Cl)cc2)c2c(N)ncnc21 [compound 25],amount of cellular ΔF508 CFTR protein (western blot),10 μM,increased
same,amount of the glycosylated form of ΔF508 CFTR (western blot),10 μM,increased
same,effect on stabilizing ΔF508 CFTR relative to VRT-325,10 μM,comparable or better
same,"glycosylated (Band B) ΔF508 CFTR protein vs absence of compound, dose response","1.25-10 μM (compound 25), 1-10 μM (compound 5)",increased
